Experimental data from US20210196654A1, “METHOD OF TREATING CONDITIONS” (Clexio Biosciences Ltd., priority 2019, published 2021).
Read-outs that look alike come from different tables or passages of the source.

Assays:
NMDA receptor = conditions: Ebert et al (1997); cited from earlier work
[1] = cited from earlier work
[2] = Repeated dose 28 day toxicokinetics; conditions: for AUC(0-inf) / AUC(0-t) / Cmax / half-life / Tmax: Sprague Dawley, rat, in vivo, po; for AUC(0-t): AUC0-t
Description: The objective of the study was to assess the potential toxicity, neurobehavioral effects, and toxicokinetics (TK) of esketamine when administered orally, via gavage, to Sprague Dawley rats for 28 days and to evaluate recovery during a 14-day drug-free period. Fifty male and 50 female rats were randomized into 4 groups (15/sex/Groups 1 and 4; 10/sex/Groups 2 and 3). Esketamine was administered via oral gavage once daily for 28 consecutive days to males at 0 (vehicle control), 6, 10 or 30 mg/kg/day and females at 0 (vehicle control), 2, 10 or 20 mg/kg/day in a dose volume of 10 mL/kg. Animals were observed until euthanized and necropsied on Day 29 (10/sex/group) or 43 (5/sex from Groups 1 and 4). Toxicity was evaluated based on mortality, clinical observations, body weights, food consumption, ophthalmology, motor activity, functional observational battery, clinical pathology (clinical chemistry, hematology, coagulation and urinalysis), organ weights, anatomic (macroscopic or microscopic) pathology. Toxicokinetic animals (3/sex/Group 1; 6/sex/Groups 2, 3, and 4) were similarly dosed and bled on Day 1 and during Week 4 for toxicokinetic analysis.

liver of Crl:CD(SD) rats = test: In vivo single cell gel electrophoresis (comet) assay in liver; conditions: for lower benchmark dose (BMDL50): single slide median Tail Intensity, PROAST
Sprague Dawley rats = test: Repeated dose 28 day toxicity study; assay type: in vivo, rat; conditions: 28 days oral gavage
[3] = system: healthy male and female subjects; test: Single dose crossover study in healthy volunteers, adverse events; assay type: in vivo, human
Text: A total of 128 TEAEs (treatment-emergent adverse event) were reported by 15 of 16 (94%) subjects of which 79 TEAEs reported by 14 of 16 (88%) subjects were to be related to the study drug. Overall, a total of 14 of 128 TEAEs reported by 4 (25%) subjects were of moderate severity and 114 of 128 TEAEs reported by 15 (94%) subjects were of mild severity. […] The most frequently occurring adverse events (reported more than twice) were headache, dizziness, hypokinesia, feeling abnormal, fatigue, euphoric mood inappropriate affect, nausea and hyperhidrosis. Table 4 presents the frequency of the most frequently reported related TEAEs as a percentage of the subjects that experienced an adverse effect per treatment.

[4] = female, 2 mg/kg, Day 1, female rats, 2 mg/kg oral
[5] = female, 2 mg/kg, Day 28, female rats, 2 mg/kg oral
[6] = female, 10 mg/kg, Day 1, female rats, 10 mg/kg oral
[7] = female, 10 mg/kg, Day 28, female rats, 10 mg/kg oral
[8] = female, 20 mg/kg, Day 1, female rats, 20 mg/kg oral
[9] = female, 20 mg/kg, Day 28, female rats, 20 mg/kg oral
[10] = male, 6 mg/kg, Day 1, male rats, 6 mg/kg oral
[11] = male, 6 mg/kg, Day 28, male rats, 6 mg/kg oral
[12] = male, 10 mg/kg, Day 1, male rats, 10 mg/kg oral
[13] = male, 10 mg/kg, Day 28, male rats, 10 mg/kg oral
[14] = male, 30 mg/kg, Day 1, male rats, 30 mg/kg oral
[15] = male, 30 mg/kg, Day 28, male rats, 30 mg/kg oral

CN[C@]1(c2ccccc2Cl)CCCCC1=O [esketamine, (2S)-2-(2-Chlorophenyl)-2-(methylamino) cyclohexanone]
affinity for the NMDA receptor relative to (R)-ketamine (NMDA receptor): 5 times
oral bioavailability ([1]; Fanta et al (2015)): 8%
oral bioavailability ([1]; Peltoniemi et al (2012)): 11%
Dose normalized AUC0-inf ([2]; Day 1, female rats, 2 mg/kg oral): 29.0 (ng*h/ml)/(mg/kg)
Dose normalized AUC0-inf ([2]; Day 1, female rats, 10 mg/kg oral): 44.0 (ng*h/ml)/(mg/kg)
Dose normalized AUC0-inf ([2]; Day 1, female rats, 20 mg/kg oral): 49.8 (ng*h/ml)/(mg/kg)
Dose normalized AUC0-inf ([2]; Day 1, male rats, 6 mg/kg oral): 17.2 (ng*h/ml)/(mg/kg)
Dose normalized AUC0-inf ([2]; Day 1, male rats, 10 mg/kg oral): 18.1 (ng*h/ml)/(mg/kg)
Dose normalized AUC0-inf ([2]; Day 1, male rats, 30 mg/kg oral): 19.5 (ng*h/ml)/(mg/kg)
Dose normalized AUC0-t ([2]; Day 28, female rats, 2 mg/kg oral): 31.0 (ng*h/ml)/(mg/kg)
Dose normalized AUC0-t ([2]; Day 28, female rats, 10 mg/kg oral): 51.3 (ng*h/ml)/(mg/kg)
Dose normalized AUC0-t ([2]; Day 28, female rats, 20 mg/kg oral): 53.2 (ng*h/ml)/(mg/kg)
Dose normalized AUC0-t ([2]; Day 28, male rats, 6 mg/kg oral): 10.2 (ng*h/ml)/(mg/kg)
Dose normalized AUC0-t ([2]; Day 28, male rats, 10 mg/kg oral): 17.9 (ng*h/ml)/(mg/kg)
Dose normalized AUC0-t ([2]; Day 28, male rats, 30 mg/kg oral): 19.2 (ng*h/ml)/(mg/kg)
sex difference in exposure ([2]; after normalization for dose level differences): males had lower exposures than females
AUC(0-inf) ([2]; female, 2 mg/kg): 58 ng·h/mL
AUC(0-t) [2, 4]: 57 ng·h/mL
AUC(0-t) [2, 5]: 62 ng·h/mL
Cmax [2, 4]: 67.2 ng/mL
Cmax [2, 5]: 133 ng/mL
half-life ([2]; female, 2 mg/kg, t1/2, Day 1, female rats, 2 mg/kg oral): 30 min
Tmax [2, 4]: 10.2 min
Tmax [2, 5]: 10.2 min
AUC(0-inf) ([2]; female, 10 mg/kg): 440 ng·h/mL
AUC(0-t) [2, 6]: 418 ng·h/mL
AUC(0-t) [2, 7]: 514 ng·h/mL
Cmax [2, 6]: 295 ng/mL
Cmax [2, 7]: 768 ng/mL
half-life ([2]; female, 10 mg/kg, t1/2, Day 1, female rats, 10 mg/kg oral): 42 min
half-life ([2]; female, 10 mg/kg, t1/2, Day 28, female rats, 10 mg/kg oral): 24 min
Tmax [2, 6]: 10.2 min
Tmax [2, 7]: 10.2 min
AUC(0-inf) ([2]; female, 20 mg/kg): 995 ng·h/mL
AUC(0-t) [2, 8]: 993 ng·h/mL
AUC(0-t) [2, 9]: 1060 ng·h/mL
Cmax [2, 8]: 672 ng/mL
Cmax [2, 9]: 1450 ng/mL
half-life ([2]; female, 20 mg/kg, t1/2, Day 1, female rats, 20 mg/kg oral): 54 min
half-life ([2]; female, 20 mg/kg, t1/2, Day 28, female rats, 20 mg/kg oral): 36 min
Tmax [2, 8]: 10.2 min
Tmax [2, 9]: 10.2 min
Cmax Day 28 vs Day 1 ([2]; females): higher on Day 28
exposure increase with dose ([2]; females, 2 to 20 mg/kg/day): slightly greater than dose-proportional
AUC(0-inf) ([2]; male, 6 mg/kg): 103 ng·h/mL
AUC(0-t) [2, 10]: 99 ng·h/mL
AUC(0-t) [2, 11]: 61 ng·h/mL
Cmax [2, 10]: 109 ng/mL
Cmax [2, 11]: 113 ng/mL
half-life ([2]; male, 6 mg/kg, t1/2, Day 1, male rats, 6 mg/kg oral): 48 min
half-life ([2]; male, 6 mg/kg, t1/2, Day 28, male rats, 6 mg/kg oral): 36 min
Tmax [2, 10]: 10.2 min
Tmax [2, 11]: 10.2 min
AUC(0-inf) ([2]; male, 10 mg/kg): 181 ng·h/mL
AUC(0-t) [2, 12]: 175 ng·h/mL
AUC(0-t) [2, 13]: 179 ng·h/mL
Cmax [2, 12]: 179 ng/mL
Cmax [2, 13]: 211 ng/mL
half-life ([2]; male, 10 mg/kg, t1/2, Day 1, male rats, 10 mg/kg oral): 42 min
half-life ([2]; male, 10 mg/kg, t1/2, Day 28, male rats, 10 mg/kg oral): 36 min
Tmax [2, 12]: 10.2 min
Tmax [2, 13]: 10.2 min
AUC(0-inf) ([2]; male, 30 mg/kg): 585 ng·h/mL
AUC(0-t) [2, 14]: 580 ng·h/mL
AUC(0-t) [2, 15]: 575 ng·h/mL
Cmax [2, 14]: 296 ng/mL
Cmax [2, 15]: 398 ng/mL
half-life ([2]; male, 30 mg/kg, t1/2, Day 1, male rats, 30 mg/kg oral): 72 min
half-life ([2]; male, 30 mg/kg, t1/2, Day 28, male rats, 30 mg/kg oral): 90 min
Tmax [2, 14]: 10.2 min
Tmax [2, 15]: 30 min
exposure increase with dose ([2]; males, 6 to 30 mg/kg/day): generally dose-proportional
macroscopic examination (liver of Crl:CD(SD) rats; after 3 doses): no test item related lesions
group mean and median % TI values vs historical control range (liver of Crl:CD(SD) rats; female rats, 25 and 50 mg/kg/day): outside of the current vehicle historical control range
median % TI in liver vs vehicle control (liver of Crl:CD(SD) rats; female rats, 25 and 50 mg/kg/day oral, 3 doses, p<0.001): Statistically significant increases
lower benchmark dose (BMDL50) (liver of Crl:CD(SD) rats; female rats): 9.83 mg/kg/day
DNA strand breaks in the liver, conclusion (liver of Crl:CD(SD) rats; male and female rats, oral gavage): evidence of causing an increase in DNA strand breaks
Hedgehog cells in liver (liver of Crl:CD(SD) rats; male or female rats, any dose level): No Hedgehog cells were observed
group mean and median % TI values vs historical control range (liver of Crl:CD(SD) rats; male rats, 75 mg/kg/day): outside of the current vehicle historical control range
median % tail intensity (TI) in liver vs vehicle control (liver of Crl:CD(SD) rats; male rats, 75 mg/kg/day oral, 3 doses, p<0.001): Statistically significant increases
lower benchmark dose (BMDL50) (liver of Crl:CD(SD) rats; male rats): 27.31 mg/kg/day
liver histopathological examination (liver of Crl:CD(SD) rats; some male animals, 75 mg/kg/day): Increased hepatocellular mitotic figures
effects on clinical signs, body weights, food consumption, ophthalmology, motor activity, functional observational battery, clinical pathology or anatomic pathology (Sprague Dawley rats): no esketamine -related effects
mortality (Sprague Dawley rats; males 6, 10, 30, females 2, 10, 20 mg/kg/day): no mortality
Dizziness, related TEAE, percentage of subjects ([3]; 0.3 mg/kg iv): 6%
Euphoric mood, related TEAE, percentage of subjects ([3]; 0.3 mg/kg iv): 19%
Fatigue, related TEAE, percentage of subjects ([3]; 0.3 mg/kg iv): 6%
Feeling abnormal, related TEAE, percentage of subjects ([3]; 0.3 mg/kg iv): 13%
Headache, related TEAE, percentage of subjects ([3]; 0.3 mg/kg iv): 19%
Hypokinesia, related TEAE, percentage of subjects ([3]; 0.3 mg/kg iv): 6%
Inappropriate affect, related TEAE, percentage of subjects ([3]; 0.3 mg/kg iv): 6%
Nausea, related TEAE, percentage of subjects ([3]; 0.3 mg/kg iv): 6%
Feeling abnormal, related TEAE, percentage of subjects ([3]; 20 mg oral solution): 19%
Headache, related TEAE, percentage of subjects ([3]; 20 mg oral solution): 19%
Inappropriate affect, related TEAE, percentage of subjects ([3]; 20 mg oral solution): 6%
Dizziness, related TEAE, percentage of subjects ([3]; 20 mg oral tablet): 13%
Fatigue, related TEAE, percentage of subjects ([3]; 20 mg oral tablet): 7%
Feeling abnormal, related TEAE, percentage of subjects ([3]; 20 mg oral tablet): 7%
Hyperhidrosis, related TEAE, percentage of subjects ([3]; 20 mg oral tablet): 7%
Dizziness, related TEAE, percentage of subjects ([3]; 100 mg oral tablet): 13%
Euphoric mood, related TEAE, percentage of subjects ([3]; 100 mg oral tablet): 13%
Feeling abnormal, related TEAE, percentage of subjects ([3]; 100 mg oral tablet): 20%
Headache, related TEAE, percentage of subjects ([3]; 100 mg oral tablet): 13%
Hyperhidrosis, related TEAE, percentage of subjects ([3]; 100 mg oral tablet): 7%
Hypokinesia, related TEAE, percentage of subjects ([3]; 100 mg oral tablet): 13%
Inappropriate affect, related TEAE, percentage of subjects ([3]; 100 mg oral tablet): 7%
Nausea, related TEAE, percentage of subjects ([3]; 100 mg oral tablet): 20%
subjects reporting TEAEs of moderate severity ([3]; 4 subjects): 25%
subjects reporting TEAEs related to the study drug ([3]; 14 of 16 subjects): 88%
subjects reporting TEAEs ([3]; 15 of 16 subjects): 94%
subjects reporting TEAEs of mild severity ([3]; 15 subjects): 94%
tolerability ([3]; 15 subjects who completed the study): generally well tolerated
TEAEs related to the study drug ([3]; all treatments): 79
severe TEAEs or SAEs ([3]; all treatments): No severe TEAEs or SAEs were reported
total TEAEs reported ([3]; all treatments, 16 subjects): 128
TEAEs of mild severity ([3]; of 128 TEAEs): 114
TEAEs of moderate severity ([3]; of 128 TEAEs): 14
